# Measurements reported in ChEMBL document CHEMBL5625233, “Exploring positions 6 and 7 of a quinazoline-based scaffold leads to changes in selectivity and potency towards RIPK2/3 kinases” (Eur J Med Chem, 2023).
# The source made the active and inactive calls. The rule behind the calls is not given here.
# How the values were obtained:
# [1] = biological target: T1, Receptor-interacting serine/threonine-protein kinase 1 (Homo sapiens, UniProt Q13546); assay: Inhibition of N-terminal polyHis-tagged human RIPK1 (1 to 321 residues) expressed in Sf9 cells using MBP as substrate preincubated for 15 mins followed by ATP addition measured after 90 mins by ADP-Glo assay
# T1 sequence (Q13546 whole entry): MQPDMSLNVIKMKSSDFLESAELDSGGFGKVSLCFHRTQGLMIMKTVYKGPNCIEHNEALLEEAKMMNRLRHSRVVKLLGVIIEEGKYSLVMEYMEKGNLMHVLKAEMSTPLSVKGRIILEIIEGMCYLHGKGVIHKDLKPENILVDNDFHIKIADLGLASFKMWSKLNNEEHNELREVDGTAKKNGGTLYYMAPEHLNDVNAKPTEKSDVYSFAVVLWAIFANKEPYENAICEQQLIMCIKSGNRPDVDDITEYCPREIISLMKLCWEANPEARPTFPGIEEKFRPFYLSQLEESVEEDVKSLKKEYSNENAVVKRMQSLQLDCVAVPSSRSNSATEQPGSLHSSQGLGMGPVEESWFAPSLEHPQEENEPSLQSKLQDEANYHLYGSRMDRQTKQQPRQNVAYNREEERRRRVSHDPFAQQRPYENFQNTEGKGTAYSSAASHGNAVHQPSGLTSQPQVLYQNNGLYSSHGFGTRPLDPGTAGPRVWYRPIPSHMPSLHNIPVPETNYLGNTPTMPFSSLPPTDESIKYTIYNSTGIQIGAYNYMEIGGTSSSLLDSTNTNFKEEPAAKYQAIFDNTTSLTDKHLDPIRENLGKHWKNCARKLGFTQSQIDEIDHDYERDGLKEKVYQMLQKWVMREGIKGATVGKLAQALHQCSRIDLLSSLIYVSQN
# [2] = biological target: T2, Receptor-interacting serine/threonine-protein kinase 2 (Homo sapiens, UniProt O43353); assay: Inhibition of N-terminal polyHis-tagged human RIPK2 (8 to 310 residues) expressed in Sf9 cells using MBP as substrate preincubated for 15 mins followed by ATP addition measured after 90 mins by ADP-Glo assay
# [3] = biological target: T2, Receptor-interacting serine/threonine-protein kinase 2; assay: Inhibition of RIPK2-mediated NF-kappaB signalling in MDP-treated human THP-1 cells preincubated for 30 mins followed by MDP addition measured after 24 hrs by luminescence based assay; assay type: cell-based
# [4] = biological target: T3, Receptor-interacting serine/threonine-protein kinase 3 (Homo sapiens, UniProt Q9Y572); assay: Inhibition of N-terminal polyHis-tagged human RIPK3 (1 to 307 residues) expressed in Sf9 cells using MBP as substrate upto 10 uM preincubated for 15 mins followed by ATP addition measured after 90 mins by ADP-Glo assay; conditions: time 105.0 min
# Target sequence in this assay (Q9Y572 whole entry, looked up, the tested form may be a part): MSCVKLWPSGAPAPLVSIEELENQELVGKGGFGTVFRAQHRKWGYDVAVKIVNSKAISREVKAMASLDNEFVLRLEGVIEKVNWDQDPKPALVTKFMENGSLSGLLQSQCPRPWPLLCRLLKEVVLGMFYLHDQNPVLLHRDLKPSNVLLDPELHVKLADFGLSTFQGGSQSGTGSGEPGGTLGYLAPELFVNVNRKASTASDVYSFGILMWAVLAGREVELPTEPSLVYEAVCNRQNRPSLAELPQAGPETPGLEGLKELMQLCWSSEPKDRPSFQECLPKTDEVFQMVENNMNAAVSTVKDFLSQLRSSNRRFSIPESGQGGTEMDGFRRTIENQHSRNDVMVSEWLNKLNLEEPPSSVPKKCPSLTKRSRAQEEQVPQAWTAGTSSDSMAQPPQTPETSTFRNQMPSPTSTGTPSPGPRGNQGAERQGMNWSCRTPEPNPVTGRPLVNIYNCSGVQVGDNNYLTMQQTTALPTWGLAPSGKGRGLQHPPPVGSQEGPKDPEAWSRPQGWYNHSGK
# [5] = biological target: T4, Receptor-interacting serine/threonine-protein kinase 4 (Homo sapiens, UniProt P57078); assay: Inhibition of N-terminal polyHis-tagged human RIPK4 (1 to 321 residues) expressed in Sf9 cells using MBP as substrate preincubated for 15 mins followed by ATP addition measured after 90 mins by ADP-Glo assay
# T4 sequence (P57078 whole entry): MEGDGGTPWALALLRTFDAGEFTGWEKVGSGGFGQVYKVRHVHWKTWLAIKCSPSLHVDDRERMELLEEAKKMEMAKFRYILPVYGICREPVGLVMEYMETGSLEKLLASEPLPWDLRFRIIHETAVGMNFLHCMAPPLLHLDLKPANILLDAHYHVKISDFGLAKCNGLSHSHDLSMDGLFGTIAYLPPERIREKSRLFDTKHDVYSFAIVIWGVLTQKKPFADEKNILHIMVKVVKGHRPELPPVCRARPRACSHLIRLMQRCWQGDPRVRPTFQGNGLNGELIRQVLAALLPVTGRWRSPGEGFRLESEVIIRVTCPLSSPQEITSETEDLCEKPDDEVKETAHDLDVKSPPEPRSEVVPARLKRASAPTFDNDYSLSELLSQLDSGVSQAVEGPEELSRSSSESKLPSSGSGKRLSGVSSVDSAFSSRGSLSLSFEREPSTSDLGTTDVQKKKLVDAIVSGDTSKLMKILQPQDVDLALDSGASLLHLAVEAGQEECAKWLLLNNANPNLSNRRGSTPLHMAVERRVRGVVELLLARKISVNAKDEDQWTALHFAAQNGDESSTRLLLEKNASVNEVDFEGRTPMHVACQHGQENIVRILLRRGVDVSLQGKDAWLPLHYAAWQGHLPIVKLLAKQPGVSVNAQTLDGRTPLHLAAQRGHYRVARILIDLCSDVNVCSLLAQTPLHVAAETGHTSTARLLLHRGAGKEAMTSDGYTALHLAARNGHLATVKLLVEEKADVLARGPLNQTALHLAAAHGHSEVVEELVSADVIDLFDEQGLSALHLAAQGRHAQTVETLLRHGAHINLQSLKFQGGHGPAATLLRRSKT
# [6] = biological target: T2, Receptor-interacting serine/threonine-protein kinase 2; assay: Inhibition of RIPK2-mediated NF-kappaB signalling in C14-TriLAN-Gly-treated human THP-1 cells preincubated for 30 mins followed by C14-TriLAN-Gly addition measured after 24 hrs by luminescence based assay; assay type: cell-based
# [7] = biological target: T3, Receptor-interacting serine/threonine-protein kinase 3; assay: Inhibition of N-terminal polyHis-tagged human RIPK3 (1 to 307 residues) expressed in Sf9 cells using MBP as substrate preincubated for 15 mins followed by ATP addition measured after 90 mins by ADP-Glo assay
# Target sequence in this assay (Q9Y572 whole entry, the tested form may be a part): as the sequence (Q9Y572 whole entry, looked up, the tested form may be a part) above
# [8] = biological target: T2, Receptor-interacting serine/threonine-protein kinase 2; assay: Inhibition of RIPK2-mediated NF-kappaB signalling in MDP-treated human THP-1 cells upto 10 uM preincubated for 30 mins followed by MDP addition measured after 24 hrs by luminescence based assay; assay type: cell-based
# [9] = biological target: T2, Receptor-interacting serine/threonine-protein kinase 2; assay: Inhibition of RIPK2-mediated NF-kappaB signalling in C14-TriLAN-Gly-treated human THP-1 cells upto 10 uM preincubated for 30 mins followed by C14-TriLAN-Gly addition measured after 24 hrs by luminescence based assay; assay type: cell-based
# T2 sequence (O43353 whole entry, the tested form may be a part): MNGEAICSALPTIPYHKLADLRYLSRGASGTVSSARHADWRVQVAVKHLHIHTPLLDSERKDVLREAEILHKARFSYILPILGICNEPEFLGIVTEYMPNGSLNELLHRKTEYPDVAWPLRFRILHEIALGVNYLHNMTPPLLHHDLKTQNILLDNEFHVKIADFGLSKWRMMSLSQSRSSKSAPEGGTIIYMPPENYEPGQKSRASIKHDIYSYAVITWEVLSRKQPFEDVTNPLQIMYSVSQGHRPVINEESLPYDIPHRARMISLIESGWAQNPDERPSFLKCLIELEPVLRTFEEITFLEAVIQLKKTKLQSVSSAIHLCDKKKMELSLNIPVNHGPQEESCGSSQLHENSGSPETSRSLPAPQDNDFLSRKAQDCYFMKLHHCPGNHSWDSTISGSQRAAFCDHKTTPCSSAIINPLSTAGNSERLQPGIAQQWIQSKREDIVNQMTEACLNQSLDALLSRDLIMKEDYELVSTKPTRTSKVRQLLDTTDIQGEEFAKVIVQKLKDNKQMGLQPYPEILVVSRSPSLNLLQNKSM
SMILES,IC50 [1] [µM],IC50 [2] [nM],IC50 [3] [nM],inhibition [4],IC50 [5] [µM],IC50 [6] [nM],IC50 [7] [nM],IC50 [8],IC50 [9]
Cc1ncc(-c2cc3c(Nc4ccc5scnc5c4)ncnc3cc2Cl)n1C,> 50,10,96,inactive,> 50,189,,,
Cn1cccc1-c1ccc2ncnc(Nc3ccc4scnc4c3)c2c1,> 50,22,523,,> 50,726,2900,,
CC(C)(C)S(=O)(=O)c1cc2c(Nc3ccc4scnc4c3)ncnc2cc1OCCOP(=O)(O)O,,4,38,inactive,,92,,,
Cc1cscc1-c1ccc2ncnc(Nc3ccc4scnc4c3)c2c1,> 50,29,1530,,> 50,4430,1900,,
Cn1cnc(-c2ccc3ncnc(Nc4ccc5scnc5c4)c3c2)c1,> 50,11,95,inactive,> 50,209,,,
Cc1ccsc1-c1ccc2ncnc(Nc3ccc4scnc4c3)c2c1,> 50,6,362,,> 50,438,388,,
Cc1nc(-c2ccc3ncnc(Nc4ccc5scnc5c4)c3c2)sc1C,> 50,14,,inactive,> 50,,,Not Active,Not Active
Cc1cscc1-c1cc2c(Nc3ccc4scnc4c3)ncnc2cc1Cl,> 50,104,2080,inactive,> 50,,,,Not Active
CC(C)S(=O)(=O)c1ccc2nccc(Nc3ccc4scnc4c3)c2c1,,2,4,,,9,,,
Cn1nccc1-c1cc2c(Nc3ccc4scnc4c3)ncnc2cc1Cl,> 50,18,318,,> 50,313,1600,,
COc1cccc(-c2cc3c(Nc4ccc5scnc5c4)ncnc3cc2Cl)n1,> 50,3900,,inactive,> 50,,,Not Active,Not Active
c1nc(Nc2ccc3scnc3c2)c2cc(-c3cc[nH]n3)ccc2n1,> 50,6,68,,> 50,114,2100,,
OCc1cccc(-c2cc3ncnc(Nc4ccc5scnc5c4)c3cc2-c2cccs2)c1,> 50,5,396,,> 50,432,551,,
Cn1cccc1-c1cc2c(Nc3ccc4scnc4c3)ncnc2cc1Cl,> 50,8,,inactive,> 50,,,Not Active,Not Active
Cc1ccsc1-c1cc2c(Nc3ccc4scnc4c3)ncnc2cc1Cl,> 50,52,,inactive,> 50,,,Not Active,Not Active
Cc1ncc(-c2cc3c(Nc4ccc5scnc5c4)ncnc3cc2Cl)s1,> 50,5,103,inactive,> 50,156,,,
Cn1cc(-c2cc3c(Nc4ccc5scnc5c4)ncnc3cc2Cl)cn1,> 50,4,63,inactive,> 50,67,,,
Clc1cc2ncnc(Nc3ccc4scnc4c3)c2cc1-c1cccs1,> 50,14,,inactive,> 50,,,Not Active,Not Active
c1ccc(-c2ccc3ncnc(Nc4ccc5scnc5c4)c3c2)cc1,> 50,18,2130,,> 50,4360,3600,,
Cc1ncc(-c2ccc3ncnc(Nc4ccc5scnc5c4)c3c2)s1,> 50,4,108,,> 50,136,6000,,
Cc1ncc(-c2ccc3ncnc(Nc4ccc5scnc5c4)c3c2)n1C,> 50,9,240,inactive,> 50,143,,,
Cn1cc(-c2ccc3ncnc(Nc4ccc5scnc5c4)c3c2)cn1,> 50,4,38,,> 50,47,1500,,
Cc1nc(-c2cc3c(Nc4ccc5scnc5c4)ncnc3cc2Cl)sc1C,> 50,,,inactive,> 50,,,Not Active,Not Active
Clc1cc2ncnc(Nc3ccc4scnc4c3)c2cc1-c1ccccc1,> 50,,,inactive,> 50,,,Not Active,Not Active
Cn1nc(C(F)(F)F)cc1-c1cc2c(Nc3ccc4scnc4c3)ncnc2cc1Cl,> 50,324,3360,,> 50,4570,2600,,
Cc1csc(-c2ccc3ncnc(Nc4ccc5scnc5c4)c3c2)n1,> 50,5,,,> 50,2750,382,Not Active,
Cn1ccnc1-c1ccc2ncnc(Nc3ccc4scnc4c3)c2c1,> 50,12,273,inactive,> 50,239,,,
Clc1cc2ncnc(Nc3ccc4scnc4c3)c2cc1-c1cc[nH]n1,> 50,10,,inactive,> 50,155,,Not Active,
Cn1cnc(-c2cc3c(Nc4ccc5scnc5c4)ncnc3cc2Cl)c1,> 50,10,140,inactive,> 50,208,,,
Cc1csc(-c2cc3c(Nc4ccc5scnc5c4)ncnc3cc2Cl)n1,> 50,,,inactive,> 50,,,Not Active,Not Active
